From patent publication US20030212074A1, “Phosphate transport inhibitors” (priority 2000, published 2003) come the findings set out here.

For orientation: IC50 means the concentration that inhibits the measured activity by half. A higher IC50 goes with weaker potency in that assay.

This test relates to Sodium-dependent phosphate transport. In words: Phosphate uptake assay in human proximal tubule cells (32P-labelled inorganic phosphate uptake). Type of test: cell-based. Particulars: whole cell assay, 32P uptake. The procedure: Sodium-dependent phosphate transport inhibition is determined by the ability of the test compound to inhibit the uptake of radio-labeled inorganic phosphate by proximal tubule cells. Appropriate cells from human, rabbit, or rat may be used.
Cell Preparation and Phosphate Uptake Assay.
Rabbit proximal tubule cells were isolated and cultured according to the procedure of Sakhrani, L. M. et al., Am. J. Physiol. 246:F757-F764, (1984) whose disclosure is incorporated herein by reference in its entirety. Human proximal tubule cells were purchased from Clonetics (San Diego, Calif.) and grown according to the suppliers' instructions. On the day of the experiment, cells were harvested from culture plates with 0.5 mM EDTA in phosphate buffered saline. The cells were washed twice in uptake buffer (see below) and equilibrated at 37 C in the same buffer for 30 minutes. Aliquots of cells (100 ul, 0.5 to 1 million cells) were distributed into glass test tubes. Fifty ul of drug solution or buffer were added followed by 50 ul of uptake buffer containing 100 uM [^32P]-K2HPO4 (0.5 to 1 uCi/tube).After varying periods of time (usually 4 minutes) at 37 C, uptakes were stopped with 4 ml of cold stop solution (see below) and the cells were washed 3 times in this solution by centrifugation. The pelleted cells were dissolved in 0.5 ml 1 N NaOH and ^32P was counted in a liquid scintillation counter. Phosphate uptake is expressed as pmol phosphate/mg cell protein.
In the above noted whole cell assay system for rabbit and human proximal tubule cells the cells are harvested by filtration and ^32P uptake is measured. It is also possible to use ^33P rather than ^32P.

SMILES strings stand for the structures.

`O=C(Nc1ccc(Br)cc1)c1cc(Br)ccc1NS(=O)(=O)c1ccccc1F` [5-bromo-N-(4-bromophenyl)-2-(2-fluorophenylsulfonamido)benzamide] registered an IC50 of 15 µM. In the case of `O=C(Nc1ccc(Br)cc1)c1cc(Br)ccc1NS(=O)(=O)CCCCl` [5-bromo-N-(4-bromophenyl)-2-(3-chloropropylsulfonamido)benzamide] it was 14 µM; in that of `O=C(Nc1ccc(Br)cc1)c1cc(Br)ccc1NS(=O)(=O)c1ccc(Cl)s1` [5-bromo-N-(4-bromophenyl)-2-(5-chloro-2-thienylsulfonamido)benzamide], 12 µM.
